Assay results: patent publication US9345241B2, “Composition having biocide activity for aqueous preparations” (Omya International AG, priority 2008, dated 2016)

Tests used:
[1] = system: Methylobacterium extorquens; assay: Biocidal activity of EDDM biocide in calcium carbonate slurries, plate count; type: cell-based
Protocol: (§1) All quoted bacterial counts (values are in cfu/ml) in the Tables herebelow are determined after 5 days following plate-out and in accordance with counting method described in “Bestimmung von aeroben mesophilen Keimen”, Schweizerisches Lebensmittelbuch, chapter 56, section 7.01, edition of 1985, revised version of 1988.
(§2) (Ethylenedioxy)dimethanol (EDDM), an aldehyde-releasing biocide, was introduced into 50 g samples of each of calcium carbonate slurry 1 and calcium carbonate slurry 2 in an amount corresponding to 1500 ppm of aldehyde-releasing EDDM biocide based on the weight of the weight of water in the slurry. In parallel, control samples of calcium carbonate slurry 1 and calcium carbonate slurry 2 were prepared in absence of EDDM.
(§3) Half of the samples of calcium carbonate slurry 1 and calcium carbonate slurry 2 were then inoculated with 1 mL of Methylobacterium extorquens, while the remaining samples where inoculated with 1 mL of Pseudomonas putida. Each of the samples was incubated at 30° C. for 72 hours. Thereafter, a 1:10 dilution in phosphate buffered saline (PBS) was plated on plate count agar (PCA). These plates were incubated at 30° C. and analysed after 5 days.

Pseudomonas putida = assay: as above; type: cell-based
Protocol: as §1, §2, §3

[2] = EDDM 1500 ppm in combination with lithium
[3] = EDDM alone at 1500 ppm, no lithium

SMILES: OCOCCOCO [EDDM, (Ethylenedioxy)dimethanol]
- bacterial count of the suspension [1, 2]: below 10^4 cfu/ml
- resistance of the strain to the biocide implemented alone [1, 3]: show resistance
- bacterial count of the suspension (Pseudomonas putida; [2]): below 10^4 cfu/ml
- resistance of the strain to the biocide implemented alone (Pseudomonas putida; [3]): show resistance
